Experiments:
[1] = test system: dermal wounds of CD-1 mice; experiment: CD-1 mouse excision wound healing assay; assay type: in vivo; settings: topical once daily, 10 μg/mouse, CT50 ± SE
Description: The LNO extract of Example 1 was further used in two in vivo models to assess wound healing and regeneration. […] In this experiment, a 12 mm skin punch was used to create a wound in mice and the mice were then divided into three groups, i.e., a negative control group, an experimental group and a positive control group. Immediately following wounding, the wounds were treated for ten days with either vehicle (0.5% carboxymethylcellulose in PBS), lucuma nut oil (LNO) (200 μg/mouse) in vehicle, or the positive control CGS-21680 (CAS120225-54-9, a specific adenosine A2A receptor agonist offered commercially by Tocris; see U.S. Pat. No. 4,968,697), also in vehicle. […] Wound healing assays were performed by MDS Pharma Services, Taiwan, MDSPS Testing Code 1115924, according to the protocol describe elsewhere (Kapoor, et al., J. Clin. Invest., 118:3279-3290 (2008); Montesinos, et al., J. Exp. Med., 186:1615-1620 (1997), each description incorporated herein by reference). Briefly, groups of 5 male CD-1 mice weighing 22±2 g were used for this assay. […] The wounded area was traced onto clear plastic sheets on days 3, 5, 7, 9 and 11 and quantitated by using an Image Analyzer (Life Science Resources VISTA, Version 30). […]

[2] = test system: transgenic zebrafish larvae tail fin (GFP-positive endothelial cells); experiment: zebrafish larvae tailfin primordia amputation regeneration / angiogenesis assay; assay type: in vivo; settings: 48 hours after amputation
Excerpt: A tailfin model of in vivo wound healing and regeneration was also used to assess the ability of a lucuma nut oil extract to promote appropriate wound healing, and the results of these assays also provided information on the angiogenic properties of LNO. In this transgenic model, the fli1 promoter drives expression of green fluorescent protein (GFP) in all the vascular endothelial cells, which allows tracking of wound healing in real time by direct observation of angiogenesis. Forty-eight-hour-old or five-day-old zebrafish larvae (AB strain) were anesthetized in 0.04% 3-amino benzoic acid ethylester (tricaine; MS-222) and placed in 2% agar Petri dishes. Surgical blades were used to amputate tailfin primordia just posterior to the notochord. Larvae were placed in 24-well plates containing either water (control), CGS-21680 (50 μg/mL; CAS120225-54-9) or LNO (10-100 μg/mL in water) and incubated at 28° C. Primordia re-growth was measured using fluorescence microscopy and image analysis of fluorescent endothelial cells. For this assay, the fin fluorescent area was normalized against the total fin area. […] The effects of LNO were analyzed and compared to the positive control CGS-21680 (2-p-(2-Carboxyethyl)phenethylamino-5′-N-ethylcarboxamidoadenosine). […]

[3] = test system: Human neonatal fibroblasts; experiment: scratched fibroblast assay (wound closure of monolayer); assay type: cell-based; settings: equivalent concentrations of pure FAs (LA 24 μg/mL, OA 18 μg/mL), 24 hours
Description: Human neonatal fibroblasts were maintained in Dulbecco's Modified Eagle Medium (D-MEM)+10% fetal bovine serum (FBS) and were kept in a humidified 37° C. incubator with 5% CO2. Cells were plated at a density of 1×10^4 cells per well in a 24-well plate and incubated for 24 hours, or until 100% confluency was reached. Each monolayer was wounded by dragging a pipette tip across the bottom of the well, using a straight edge as a guide (approximately 1.3 mm in width). The media was removed and cells were washed with 500 μL PBS twice to remove detached cells or cell debris. The cells were treated as follows: DMEM+10% FBS+vehicle (0.06% glycerol, positive control), DMEM+vehicle (0.06% glycerol, negative control), DMEM+vehicle (0.06% glycerol)+LNO (60 μg/mL), DMEM+vehicle (0.06% glycerol)+LA (24 μg/mL) and DMEM+vehicle (0.06% glycerol)+OA (18 μg/mL). Photos were taken of each well to measure the initial area of the wound. After 24 hours incubation, wells were photographed again. The scratched area was measured using […] Photoshop CS software, and percentage of wound closure at each time point was derived by the following formula: (1−[current wound size/initial wound size])×100.

Compound | Dermal wound closure expressed as half-closure time (CT50) [1] | GFP-positive endothelial cells in regenerating tail fin (angiogenesis) [2] | cell migration in scratched fibroblasts compared with LNO 60 μg/mL [3]
CCNC(=O)[C@H]1O[C@@H](n2cnc3c(N)nc(NCCc4ccc(CCC(=O)O)cc4)nc32)[C@H](O)[C@@H]1O [CGS, 2-p-(2-Carboxyethyl)phenethylamino-5′-N-ethylcarboxamidoadenosine] | 6.04 ± 0.2 days | – | –
CCCCC/C=C\C/C=C\CCCCCCCC(=O)O [LA, linoleic acid] | – | not found | not able to reproduce the effect of LNO in cell migration
CCCCCCCC/C=C\CCCCCCCC(=O)O [OA, oleic acid] | – | not found | not able to reproduce the effect of LNO in cell migration

— patent US20110318403A1, “Preparation and Use of Pouteria Lucuma Extract” (priority 2008, published 2011)
